For assay [1], the system named is anti-CD5-anti-DNP dual specificity conjugate (compound 1) on HPBALL cells (human T-cell line). Kind of assay: Binding of radioiodinated probe to target cells after washing the excess dual specificity conjugate. The following applies: 37° C.; for Bound/free (%): compound 1 1 h then washed 3 times, tracer 2 h; for Bound/free (%), SB = Specific Binding: excess conjugate washed. The procedure: (§1) In an Eppendorf plastic tube are incubated 100 μl of a cell suspension at 3.10^7 cells/ml of a human T-cell line (HPBALL) or of a human B lymphoma line (Namalwa) in phosphate buffered saline supplemented with 0.1% bovine serum albumin, 0.02% azide and 50 mM deoxyglucose, 100 μl of a solution of dual specificity conjugate, anti-CD5 (compound 1) or anti-CALLA (compound 2), at 0.5 μg/ml in the same buffer and 150 μl of radioiodinated compound 6 or compound 7. After 3 h at 4° C. or 37° C. with agitation, 100 μl of the resulting cell suspension are transferred into triplicate 0.4 ml plastic tubes containing 200 μl of a 1.2:1 mixture of dibutyl-phthalate and ethyl-hexyl-phthalate. After 30 sec centrifugation at 10,000 g, 50 μl of the supernatant are collected and counted, and the bottom of the tube, containing the cell pellet, is cut and counted. Results are then expressed as bound/free percentages.
(§2) The experimental conditions are similar to that described above but the dual specificity conjugate is incubated first for 1 h, then the cells are washed 3 times and the tracer is added. The cells are then pelleted after another 2 h incubation. Results.

The subject of assay [2] is anti-CD5-anti-DNP dual specificity conjugate (compound 1) with Namalwa cells (human B lymphoma line). The assay is described as above. The following applies: Namalwa cells (no CD5), compound 1 1 h then washed 3 times, tracer 2 h. The procedure:
as §1, §2

In assay [3] the test system is anti-CALLA-anti-DNP dual specificity conjugate (compound 2) with HPBALL cells (human T-cell line). The description is as above. The following applies: HPBALL cells (no CALLA), compound 2 1 h then washed 3 times, tracer 2 h, 37° C. As to the method:
as §1, §2

Assay [4] relates to anti-CALLA-anti-DNP dual specificity conjugate (compound 2) on Namalwa cells (human B lymphoma line). The assay is described as above. The following applies: for Bound/free (%): compound 2 1 h then washed 3 times, tracer 2 h; for Bound/free (%), SB = Specific Binding: excess conjugate washed. The procedure:
as §1, §2

The test system of assay [5] is anti-CD5-anti-DNP dual specificity conjugate (compound 1) with Namalwa cells (human B lymphoma line). The assay is described as follows: Binding of radioiodinated probe to target cells in the presence of excess dual specificity conjugate. The following applies: Namalwa cells (no CD5), compound 1 at 0.5 μg/ml present, 3 h. As to the method: as §1
(§3) The experimental settings allow cross-controlled experiments, since HPBALL cells express the T-cell marker CD5, but not the tumor-associated antigen CALLA, whereas Namalwa cells express CALLA, but not CD5.

Assay [6] concerns anti-CALLA-anti-DNP dual specificity conjugate (compound 2) on Namalwa cells (human B lymphoma line). The description is as above. The following applies: for Bound/free (%): compound 2 at 0.5 μg/ml present, 3 h; for Bound/free (%), SB = Specific Binding: excess conjugate present. The procedure: as §1, §3
Assay [7] relates to anti-CALLA-anti-DNP dual specificity conjugate (compound 2; F(ab')2 clone ALB1 coupled to anti-DNP Fab' clone U7-27) with HPBALL cells (human T-cell line). Described as above. The following applies: HPBALL cells (no CALLA), compound 2 at 0.5 μg/ml present, 3 h. The procedure:
as §1, §3

For assay [8], the system named is anti-CD5-anti-DNP dual specificity conjugate (compound 1; F(ab')2 clone BL1a coupled to anti-DNP Fab' clone U7-27) on HPBALL cells (human T-cell line). The assay is described as above. The following applies: for Bound/free (%): compound 1 at 0.5 μg/ml present, 3 h; for Bound/free (%), SB = Specific Binding: excess conjugate present. The procedure:
as §1, §3

Assay [9] has as its system anti-Lyb8.2-anti-DNP conjugate (compound 3) on BALB/c mouse spleen cells. The assay is described as follows: Binding of 111In-labeled probe to mouse spleen cells in the presence of conjugate. The following applies: 111In-labeled tracer, BALB/c spleen cells 10^7 cells/ml, 37° C., 2 h, compound 3 at 3.10^-9 M. As to the method:
as §1
Compound 4, and the monomeric analogue, compound 5, (0.2 nmol) have been labeled with 0.2 mCi of ^111 In chloride by incubation at room temperature in 0.1M citrate buffer for 30 min. […] After incubation of freshly isolated BALB/c mouse spleen cells (10^7 cells/ml) at 37° C. for 2 h in the presence of anti-Lyb8.2-anti-DNPconjugate (compound 3) at 3.10^-9 M, binding of the labeled compounds 4 and 5 was monitored as described in example 4. […]

Side chains are listed from the residue outwards. Peptide text beside a SMILES is read from it. * marks the point of attachment. Dnp = O=[N+]([O-])c1ccc(*)c([N+](=O)[O-])c1; Ahx = NCCCCCC(=O)O

As for `O=C(O)CNC(=O)[C@H](Cc1ccc(O)cc1)NC(=O)CCCCCNc1ccc([N+](=O)[O-])cc1[N+](=O)[O-]` [compound 7, N-α-(2,4-dinitrophenyl-aminocaproyl)-L-tyrosyl-gylicine], the “Bound/free (%)” value is reported as 11% in assay [1]; 8% in [2] (4° C.); 2% in assay [2] (37° C.); 3% in assay [3]; 50% in assay [4] (4° C.); 4% in assay [4] (37° C.). Also, the “Bound/free (%)” value in [5] (4° C.) is 2%; in [5] (37° C.), 1%; in assay [6] (4° C.), 6%; in assay [6] (37° C.) it was 5%; in assay [7] (4° C.), 3%; in assay [7] (37° C.) it was 3%. In addition, the entries for the “Bound/free (%)” value in assay [8] (4° C.) and in assay [8] (37° C.) were 38% and 12%, respectively. Also, the “Bound/free (%), SB = Specific Binding” value in assay [1] was 7%; in assay [4] (4° C.), 42%; in assay [4] (37° C.), 2%; in assay [6] (4° C.), 4%; in assay [6] (37° C.), 4%; in [8] (4° C.) it was 35%. For the same compound, the “Bound/free (%), SB = Specific Binding” value in assay [8] (37° C.) is 9%.

As to `O=C(O)CN(CCN(CC(=O)O)CC(=O)N[C@@H](CCCCNc1ccc([N+](=O)[O-])cc1[N+](=O)[O-])C(=O)O)CCN(CC(=O)O)CC(=O)N[C@@H](CCCCNc1ccc([N+](=O)[O-])cc1[N+](=O)[O-])C(=O)O` [compound 4, bis-(N-ε-(2,4-dinitrophenyl)-L-Lysyl)diethylenetriamine-pentaacetic acid], the bound/free in [9] is given as 26%.

For the compound `O=C(CCCCCNc1ccc([N+](=O)[O-])cc1[N+](=O)[O-])NCCCC[C@H](NC(=O)[C@H](Cc1ccc(O)cc1)NC(=O)CCCCCNc1ccc([N+](=O)[O-])cc1[N+](=O)[O-])C(=O)O` [compound 6, N-α-(2,4-dinitrophenyl-aminocaproyl)-L-tyrosyl-N-ε-(2,4-dinitrophenyl-aminocaproyl)-L-lysine] ({Dnp-Ahx}-Tyr-Lys([Ahx-Dnp])-OH), the “Bound/free (%)” value in assay [1] came to 45%; in [2] (4° C.), 15%; in assay [2] (37° C.) it was 4%; in assay [3] it was 9%; in assay [4] (4° C.), 145%; in assay [4] (37° C.) it was 11%. In addition, the “Bound/free (%)” value in assay [5] (4° C.) is 2%; in assay [5] (37° C.), 4%; in [6] (4° C.) it was 23%; in assay [6] (37° C.), 21%; in [7] (4° C.) it was 16%; in assay [7] (37° C.), 15%. Also, the “Bound/free (%)” value is on record as 72% in assay [8] (4° C.) and 67% in [8] (37° C.). Further, the “Bound/free (%), SB = Specific Binding” value was found to be 36% in assay [1]; 130% in [4] (4° C.); 7% in assay [4] (37° C.); 21% in assay [6] (4° C.); 17% in assay [6] (37° C.); 56% in [8] (4° C.). For the same compound, the “Bound/free (%), SB = Specific Binding” value in [8] (37° C.) stood at 52%.

For the compound `O=C(O)CN(CCN(CC(=O)O)CC(=O)O)CCN(CC(=O)O)CC(=O)N[C@@H](CCCCNc1ccc([N+](=O)[O-])cc1[N+](=O)[O-])C(=O)O` [compound 5, (N-ε-(2,4-dinitrophenyl)-L-Lysyl)-diethylenetriamine-pentaacetic acid], the bound/free in [9] turned out to be 6%.
